Results published in patent EP4763845A1, “CYANO AROMATIC RING DERIVATIVE AND PHARMACEUTICAL USE THEREOF” (Haisco Pharmaceutical Group Co., Ltd., priority 2023, dated 2025).
Read-outs that look alike come from different tables or passages of the source.

Key:
Assay type in all cases: cell-based
hERG potassium channel = target: T1, hERG potassium channel (Homo sapiens, UniProt Q12809); assay: hERG potassium ion channel test (manual patch-clamp, CHO cells)
T1 construct: expressed in transfected cells; host or cells: CHO cells stably expressing hERG
Text: Experimental platform: Electrophysiological manual patch-clamp system
Cell line: Chinese hamster ovary (CHO) cell lines stably expressing hERG potassium ion channel
Experimental method: In Chinese Hamster Ovary (CHO) cells stably expressing hERG potassium channel, whole cell patch-clamp technique was used to record hERG potassium channel current at room temperature. The glass microelectrode was made of a glass electrode blank (BF150-86-10, Sutter) by a puller. The tip resistance after filling the liquid in the electrode was about 2-5 MΩ. The glass microelectrode can be connected to the patch-clamp amplifier by inserting the glass microelectrode into an amplifier probe. The clamping voltage and data recording were controlled and recorded by the pClamp 10 software through a computer. The sampling frequency was 10 kHz, and the filtering frequency was 2 kHz. After the whole cell records were obtained, the cells were clamped at -80 mV, and the step voltage that induced the hERG potassium current (I hERG) was depolarised from -80 mV to +20 mV for 2 s, then repolarised to -50 mV, and returned to -80 mV after 1 s. This voltage stimulation was given every 10 s, and the administration process was started after the hERG potassium current was confirmed to be stable (at least 1 minute). The compound was administered for at least 1 minute at each test concentration, and at least 2 cells (n ≥ 2) were tested at each concentration.
Data processing: Data analysis processing was carried out by using pClamp 10, GraphPad Prism 5 and Excel software.
Compound IC50 was calculated using GraphPad Prism 5 software by fitting according to the following equation: Y = Bottom + (Top−Bottom)/(1+10^(∧)((LogIC50−X)*HillSlope)) [formula] where X represents the Log value of the tested concentration of the test sample, Y represents the inhibition percentage at the corresponding concentration, and Bottom and Top represent the minimum and maximum inhibition percentage, respectively.

AR protein = target: T2, AR protein (Homo sapiens, UniProt P10275); assay: Detection of AR degradation in VCaP cells (automated western blot); conditions: for DC50: degradation of AR protein in VCaP cells, 24 hours incubation, read-out: DC50; for Degradation rate %: AR protein in VCaP cells, concentration of 30 nM, 24 hours
T2 construct: VCap is a human prostate cancer cell line purchased from ATCC; host or cells: VCaP human prostate cancer cells
T2 sequence (P10275 1-920): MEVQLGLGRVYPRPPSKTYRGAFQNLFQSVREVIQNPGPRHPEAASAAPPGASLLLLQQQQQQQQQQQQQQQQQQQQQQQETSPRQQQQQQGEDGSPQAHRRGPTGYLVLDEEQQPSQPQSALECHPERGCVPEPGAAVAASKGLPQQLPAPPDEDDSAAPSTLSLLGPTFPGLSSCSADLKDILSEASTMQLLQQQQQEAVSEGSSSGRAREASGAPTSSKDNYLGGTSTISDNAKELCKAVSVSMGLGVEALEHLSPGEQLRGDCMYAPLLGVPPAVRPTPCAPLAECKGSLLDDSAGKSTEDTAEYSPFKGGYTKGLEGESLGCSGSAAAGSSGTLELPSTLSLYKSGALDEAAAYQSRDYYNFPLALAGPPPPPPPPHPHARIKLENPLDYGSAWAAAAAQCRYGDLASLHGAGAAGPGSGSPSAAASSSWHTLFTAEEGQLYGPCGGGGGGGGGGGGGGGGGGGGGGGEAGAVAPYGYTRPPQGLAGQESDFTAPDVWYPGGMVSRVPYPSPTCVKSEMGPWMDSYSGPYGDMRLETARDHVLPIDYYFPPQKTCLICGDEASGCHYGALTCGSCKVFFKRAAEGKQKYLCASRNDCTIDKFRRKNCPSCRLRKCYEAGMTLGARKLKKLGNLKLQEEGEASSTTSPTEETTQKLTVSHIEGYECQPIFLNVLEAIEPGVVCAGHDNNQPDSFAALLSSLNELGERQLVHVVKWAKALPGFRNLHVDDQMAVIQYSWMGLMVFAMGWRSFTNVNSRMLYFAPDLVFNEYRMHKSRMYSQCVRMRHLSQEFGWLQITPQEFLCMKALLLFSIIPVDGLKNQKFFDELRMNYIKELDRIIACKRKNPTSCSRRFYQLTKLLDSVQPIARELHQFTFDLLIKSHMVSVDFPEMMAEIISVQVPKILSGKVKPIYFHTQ
Protocol: VCap is a human prostate cancer cell line purchased from ATCC and cultured under the following conditions: DMEM + 10% FBS + 1% penicillin-streptomycin solution. The cells were cultured in a 37°C, 5% CO2 incubator. The cells were seeded in a 6-well plate, with 5 × 10^5 cells/well. After seeding, compounds at various concentrations were added, and the plate was incubated for 24 hours in the 37°C, 5% CO2 incubator. Following incubation, the cells were harvested and RIPA lysis buffer (beyotime, Cat. P0013B) was added. The cells were lysed on ice for 15 minutes and centrifuged at 12,000 rpm at 4°C for 10 minutes. The supernatant protein samples were collected and the protein was quantified using the BCA kit (Beyotime, Cat. P0009). Then the protein was diluted to 0.25 mg/mL. The expressions of AR (CST, Cat.5153S) and the internal reference β-actin (CST, Cat. 3700S) were detected using a fully automated western blot quantitative analyser (Proteinsimple). Using the "Compass for SW" software, the relative peak area of AR was calculated when the internal reference area was 10,000. The proportion of AR relative to the solvent control group at various drug concentrations was calculated according to Equation (1), where ARtreat represents the relative peak area of the compound-treated group, and ARsolvent represents the relative peak area of the solvent control group. The processed data obtained from Equation (1) were analysed using GraphPad Prism 8.3.0 software, and the DC50 value was calculated using a four-parameter nonlinear regression model. The degradation rate at a specified concentration was determined as 100-AR%. AR% = ARtreat/ ARsolvent × 100% [formula]

VCaP cells = assay: VCaP cell proliferation inhibition experiment (CellTiter-Glo); conditions: Homo sapiens, 168 h
Protocol: After centrifugation and resuspension, viable cell counting was performed using a Vi-Cell XR cell counter. […] Then, 180 µl of the cell suspension was added per well to a 96-well cell culture plate at a cell density of 7,500 cells/well. At the time of seeding, T0 wells were also prepared. The following day, R1881 at a final concentration of 0.1 nM and compounds at various concentrations were added. The plate was placed back into the incubator and cultured for an additional 7 days. At the time of compound addition, the T0 plate was measured using the CellTiter-Glo (CTG) kit (Promega, Cat. No. G7572) and recorded as RLU0. Following incubation, 75 µl of pre-thawed and room temperature-equilibrated CellTiter-Glo solution was added to each well. […] The results were processed according to Equation (2). […] Growth% = (RLUcompound−RLU0)/(RLUcontrol−RLU0) × 100% [formula]

[1] = chinese hamster, inhibitory activity against hERG potassium channel current, CHO cells, whole cell patch-clamp, read-out: IC50

T1 sequence (Q12809 whole entry): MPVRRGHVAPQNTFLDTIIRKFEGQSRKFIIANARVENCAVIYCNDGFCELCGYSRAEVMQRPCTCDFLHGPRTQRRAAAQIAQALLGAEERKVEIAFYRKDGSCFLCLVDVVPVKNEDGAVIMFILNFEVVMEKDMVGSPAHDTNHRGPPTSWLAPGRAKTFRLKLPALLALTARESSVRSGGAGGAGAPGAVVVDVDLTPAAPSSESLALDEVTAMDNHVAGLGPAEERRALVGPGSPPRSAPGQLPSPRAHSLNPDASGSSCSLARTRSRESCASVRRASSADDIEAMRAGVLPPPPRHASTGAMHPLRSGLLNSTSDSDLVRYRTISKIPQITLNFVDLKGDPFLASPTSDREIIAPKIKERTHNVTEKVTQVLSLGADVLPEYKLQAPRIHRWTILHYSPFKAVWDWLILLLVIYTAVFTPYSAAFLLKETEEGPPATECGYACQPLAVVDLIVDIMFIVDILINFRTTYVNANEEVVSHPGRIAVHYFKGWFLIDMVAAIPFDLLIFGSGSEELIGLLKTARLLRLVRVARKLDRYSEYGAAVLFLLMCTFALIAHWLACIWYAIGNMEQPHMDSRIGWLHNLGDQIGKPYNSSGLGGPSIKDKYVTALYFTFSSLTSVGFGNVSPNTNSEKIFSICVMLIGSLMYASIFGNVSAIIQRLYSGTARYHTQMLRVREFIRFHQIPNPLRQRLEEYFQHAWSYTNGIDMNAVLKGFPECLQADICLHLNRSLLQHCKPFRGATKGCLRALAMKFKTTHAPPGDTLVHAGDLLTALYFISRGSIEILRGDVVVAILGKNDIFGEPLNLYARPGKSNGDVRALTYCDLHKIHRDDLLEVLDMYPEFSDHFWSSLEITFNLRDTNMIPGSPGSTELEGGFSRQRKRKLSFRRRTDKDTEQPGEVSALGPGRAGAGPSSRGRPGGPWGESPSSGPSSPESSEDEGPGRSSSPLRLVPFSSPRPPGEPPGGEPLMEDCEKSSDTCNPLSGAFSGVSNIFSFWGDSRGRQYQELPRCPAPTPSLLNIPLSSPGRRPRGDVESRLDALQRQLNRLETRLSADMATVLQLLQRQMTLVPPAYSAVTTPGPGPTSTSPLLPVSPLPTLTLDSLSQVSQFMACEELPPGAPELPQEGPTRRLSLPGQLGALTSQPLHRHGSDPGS

| GI50 (VCaP cells) | Structure (SMILES) | DC50 (AR protein) | also measured |
| --- | --- | --- | --- |
|  | COc1cc(O[C@H]2C(C)(C)[C@H](NC(=O)c3ccc(N4CCC(CN5CCN6c7cc(F)c(C8CCC(=O)NC8=O)cc7CC[C@@H]6C5)CC4)cc3)C2(C)C)ccc1C#N (stereo partly shown) [Trifluoroacetate of compound 2] | < 100 nM | IC50 (hERG potassium channel): > 40000 nM |
|  | CC1(C)[C@H](NC(=O)c2ccc(N3CCC(CN4CCN5c6cc(F)c(C7CCC(=O)NC7=O)cc6CC[C@H]5C4)CC3)cc2)C(C)(C)[C@H]1Oc1ccc(C#N)c(C2CC2)c1 (stereo partly shown) [Compound 118] |  | IC50 (hERG potassium channel; inhibitory activity against hERG potassium channel current, CHO cells, whole cell patch-clamp, read-out: IC50): > 40000 nM; Degradation rate % (AR protein): >70% |
| < 300 nM | [2H]C([2H])([2H])Oc1cc(O[C@H]2C(C)(C)[C@H](NC(=O)c3ccc(N4CCC5(CC4)CC(N4CCN6c7cc(F)c(N8CCC(=O)NC8=O)cc7CC[C@@H]6C4)C5)cc3)C2(C)C)ccc1C#N [Compound 94] |  |  |
| < 300 nM | CC1(C)[C@H](NC(=O)c2ccc(N3CCC(CN4CCN5c6cc(F)c(C(=O)N[C@H]7CCC(=O)NC7=O)cc6CC[C@@H]5C4)CC3)cc2)C(C)(C)[C@H]1Oc1ccc(C#N)c(Cl)c1 [Compound 52] |  |  |
|  | CC1(C)[C@H](NC(=O)c2ccc(N3CCC(CN4CCN5c6cc(F)c(C(=O)N[C@H]7CCC(=O)NC7=O)cc6CC[C@@H]5C4)CC3)cc2)C(C)(C)[C@H]1Oc1ccc(C#N)c2ncccc12 [Compound 34] | < 100 nM | IC50 (hERG potassium channel; [1]): > 40000 nM |
| < 300 nM | [2H]C([2H])([2H])Oc1cc(O[C@H]2C(C)(C)[C@H](NC(=O)c3ccc(N4CCC(CN5CCN6c7cc(F)c(C8CCC(=O)NC8=O)cc7CC[C@H]6C5)CC4)nn3)C2(C)C)ccc1C#N (stereo partly shown) [Compound 86] |  |  |
|  | CC1(C)[C@H](NC(=O)c2ccc(N3CCC4(CC3)CC(CN3CCN5c6cc(F)c(C7CCC(=O)NC7=O)cc6CC[C@H]5C3)C4)cc2)C(C)(C)[C@H]1Oc1ccc(C#N)c2ncccc12 (stereo partly shown) [Compound 73] | < 100 nM | IC50 (hERG potassium channel; [1]): > 40000 nM |
|  | COc1cc(O[C@H]2C(C)(C)[C@H](NC(=O)c3ccc(N4CCC(CN5CCN6c7cc(F)c(N8CCC(=O)NC8=O)cc7CC[C@@H]6C5)CC4)cc3)C2(C)C)ccc1C#N [Compound 28] |  | IC50 (hERG potassium channel): > 40000 nM |
| < 500 nM | [2H]C([2H])([2H])Oc1cc(O[C@H]2C(C)(C)[C@H](NC(=O)c3ccc(N4CCC(CN5CCN6c7cc(F)c(C(=O)N[C@H]8CCC(=O)NC8=O)cc7CC[C@@H]6C5)CC4)nn3)C2(C)C)ccc1C#N [Compound 87] |  |  |
|  | COc1cc(O[C@H]2C(C)(C)[C@H](NC(=O)c3ccc(N4CCC(CN5CCN6c7cc(F)c(C8CCC(=O)NC8=O)cc7CC[C@H]6C5)CC4)cc3)C2(C)C)ccc1C#N (stereo partly shown) [Trifluoroacetate of compound 1] | < 100 nM | IC50 (hERG potassium channel; chinese hamster, cho cells): > 40000 nM |
|  | COc1cc(O[C@H]2C(C)(C)[C@H](NC(=O)c3ccc(N4CCC(CN5CCN6c7cc(F)c(C(=O)NC8CCC(=O)NC8=O)cc7CC[C@@H]6C5)CC4)cc3)C2(C)C)ccc1C#N (stereo partly shown) [Trifluoroacetate of compound 4] | < 100 nM | IC50 (hERG potassium channel; [1]): > 40000 nM |
|  | CC1(C)[C@H](NC(=O)c2ccc(N3CCC(CN4CCN5c6cc(F)c(C(=O)N[C@H]7CCC(=O)NC7=O)cc6CC[C@H]5C4)CC3)cc2)C(C)(C)[C@H]1Oc1ccc(C#N)c2ncccc12 [Compound 35] | < 100 nM | IC50 (hERG potassium channel; [1]): > 40000 nM |
|  | CC#CCOc1cc(O[C@H]2C(C)(C)[C@H](NC(=O)c3ccc(N4CCC(CN5CCN6c7cc(F)c(C(=O)N[C@H]8CCC(=O)NC8=O)cc7CC[C@@H]6C5)CC4)cc3)C2(C)C)ccc1C#N [Trifluoroacetate of compound 99] |  | Degradation rate % (AR protein): >70% |
|  | COc1cc(O[C@H]2C(C)(C)[C@H](NC(=O)c3ccc(N4CCC(CN5CCN6c7ccc(N8CCC(=O)NC8=O)cc7CCC6C5)CC4)cc3)C2(C)C)ccc1C#N (stereo partly shown) [Compound 15] | < 100 nM |  |
|  | COc1cc(O[C@H]2C(C)(C)[C@H](NC(=O)c3ccc(N4CCC(CN5CCN6c7cc(F)c(N8CCC(=O)NC8=O)cc7CC[C@H]6C5)CC4)nn3)C2(C)C)ccc1C#N [Trifluoroacetate of compound 63] | < 100 nM |  |
|  | COc1cc(O[C@H]2C(C)(C)[C@H](NC(=O)c3ccc(N4CCC(CN5CCN6c7cc(F)c(C(=O)NC8CCC(=O)NC8=O)cc7CC[C@H]6C5)CC4)cc3)C2(C)C)ccc1C#N (stereo partly shown) [Trifluoroacetate of compound 3] | < 100 nM | IC50 (hERG potassium channel; [1]): > 40000 nM |
|  | CC1(C)[C@H](NC(=O)c2ccc(N3CCC(CN4CCN5c6cc(F)c(C7CCC(=O)NC7=O)cc6CC[C@@H]5C4)CC3)cc2)C(C)(C)[C@H]1Oc1ccc(C#N)c(Cl)c1 (stereo partly shown) [Compound 48] | < 100 nM |  |

| Structure (SMILES) | GI50 (VCaP cells) | DC50 (AR protein) | also measured |
| --- | --- | --- | --- |
| [2H]C([2H])([2H])Oc1cc(O[C@H]2C(C)(C)[C@H](NC(=O)c3ccc(N4CCC(CN5CCN6c7cc(F)c(C(=O)N[C@H]8CCC(=O)NC8=O)cc7CC[C@@H]6C5)CC4)cc3)C2(C)C)ccc1C#N [Compound 40] | < 300 nM | < 100 nM |  |
| [2H]C([2H])([2H])Oc1cc(O[C@H]2C(C)(C)[C@H](NC(=O)c3ccc(N4CCC(CN5CCN6c7cc(F)c(C8CCC(=O)NC8=O)cc7CC[C@H]6C5)CC4)cc3)C2(C)C)ccc1C#N (stereo partly shown) [Compound 37] | < 300 nM | < 100 nM |  |
| CC1(C)[C@H](NC(=O)c2ccc(N3CCC(CN4CCN5c6cc(F)c(N7CCC(=O)NC7=O)cc6CC[C@H]5C4)CC3)cc2)C(C)(C)[C@H]1Oc1ccc(C#N)c2ncccc12 [Trifluoroacetate of compound 33] | < 500 nM | < 100 nM |  |
